This note sets out measurements from ChEMBL document CHEMBL3886836, “Amides as pim inhibitors” (2016).

Assay [1] deals with T1, Serine/threonine-protein kinase pim-1 (Homo sapiens, UniProt P11309). Put plainly: The phosphorylation of biotinylated-BAD (S112) peptide by full length recombinant Pim-1, Pim-2, or Pim-3 protein was detected with streptavidin:Allophycocyanin (APC) conjugate and a europium (Eu) labeled antibody directed against phosphorylated-BAD (S112). […] The fluorescence is directly proportional to the amount of phosphorylated BAD peptide present in the reaction. […] The Reaction Buffer consisted of 45 mM Hepes, pH 7.0, 15 mM NaCl, and 1 mM MgCl. The quench/detection buffer consisted of 50 mM Tris, 100 mM NaCl, 0.05% BSA, 0.1% Tween and 3 mM EDTA. Biotinylated BAD peptide (Biopeptide), 10 mM ATP (Sigma), Labeled p-BAD (S112) mAb (Cell Signalling and Perkin Elmer) [with 0.05% BSA and 2 mM DTT added] streptavidin:Allophycocyanin [Perkin Elmer]. […] Initial incubations were carried out at RT (22° C.) for 30 min for both Pim-1 and for Pim-2. Pim enzyme is added to compound in buffer, and plates are incubated of 30 min. Biotinylated BAD and ATP are added and plates are incubated for 1 h. A mixture of labeled p-BAD (S112) mAb and quench/detection buffer are added and incubated for 2 h. Fluorescence was measured by an HTRF® Envision microplate reader. On the technique in general: Time-resolved FRET reads energy transfer from a long-lived donor to a nearby acceptor.

In assay [2] the target is T2, Serine/threonine-protein kinase pim-2 (Homo sapiens, UniProt Q9P1W9). Put plainly: Homogeneous Time Resolved Fluorescence Assay (HTRF): The assay for the determination of Pim activity is based on the formation of phosphorylated biotinylated-BAD peptide at the Serine 112 residue (S112) and employs HTRF® (homogeneous time resolved fluorescence) technology to detect the product in a 384-well plate format. The phosphorylation of biotinylated-BAD (S112) peptide by full length recombinant Pim-1, Pim-2, or Pim-3 protein was detected with streptavidin:Allophycocyanin (APC) conjugate and a europium (Eu) labeled antibody directed against phosphorylated-BAD (S112). Excitation of Eu by a high energy laser light (337 nm) leads to a transfer of energy to the APC molecule, and results in an emission at 665 nm. The fluorescence is directly proportional to the amount of phosphorylated BAD peptide present in the reaction. […] A reference compound was included on each assay plate [Costar 3658] in order to validate that plate; on one plate of every assay run, two additional reference compounds were included. The Reaction Buffer consisted of 45 mM Hepes, pH 7.0, 15 mM NaCl, and 1 mM MgCl. The quench/detection buffer consisted of 50 mM Tris, 100 mM NaCl, 0.05% BSA, 0.1% Tween and 3 mM EDTA. Biotinylated BAD peptide (Biopeptide), 10 mM ATP (Sigma), Labeled p-BAD (S112) mAb (Cell Signalling and Perkin Elmer) [with 0.05% BSA and 2 mM DTT added] streptavidin:Allophycocyanin [Perkin Elmer]. Final concentrations either Pim-1 enzyme [5 pM], or Pim-2 enzyme [0.5 pM], DMSO [1%], BLC BAD (S112) [0.5 μM], ATP [1.5 μM], streptavidin:Allophycocyanin [0.002 mg/mL] and biotinylated-BAD (S112) mAb [100 pM]. Initial incubations were carried out at RT (22° C.) for 30 min for both Pim-1 and for Pim-2. Pim enzyme is added to compound in buffer, and plates are incubated of 30 min. Biotinylated BAD and ATP are added and plates are incubated for 1 h. A mixture of labeled p-BAD (S112) mAb and quench/detection buffer are added and incubated for 2 h. Fluorescence was measured by an HTRF® Envision microplate reader.

The target of assay [3] is T1, Serine/threonine-protein kinase pim-1. Put plainly: (§1) Homogeneous Time Resolved Fluorescence Assay (HTRF): The assay for the determination of Pim activity is based on the formation of phosphorylated biotinylated-BAD peptide at the Serine 112 residue (S112) and employs HTRF® (homogeneous time resolved fluorescence) technology to detect the product in a 96-well plate format. The phosphorylation of biotinylated-BAD (S112) peptide by full length recombinant Pim-1, Pim-2, or Pim-3 protein was detected with streptavidin:Allophycocyanin (APC) conjugate and a europium (Eu) labeled antibody directed against phosphorylated-BAD (S112). Excitation of Eu by a high energy laser light (337 nm) leads to a transfer of energy to the APC molecule, and results in an emission at 665 nm. The fluorescence is directly proportional to the amount of phosphorylated BAD peptide present in the reaction. […] A reference compound was included on each assay plate in order to validate that plate; on one plate of every assay run, two additional reference compounds were included. The final buffer conditions were as follows: 60 mM Hepes, pH 7.0, 0.05% BSA, 2 mM DTT. Incubations were carried out at RT (22° C.) for 2 h for Pim-1, 1 hour and 30 min for Pim-3, and 45 min for Pim-2. The reaction was stopped by the addition of 3 mM EDTA, and fluorescence was measured by an HTRF® Rubystar microplate reader.

Assay [4] addresses T2, Serine/threonine-protein kinase pim-2. The description is as §1.

Consider `Cc1nc2cccc(-c3cc4c([nH]3)CCNC4=O)c2nc1N[C@H]1C[C@@H](N(C)C)C1`, for which the IC50 (commonly the concentration at which inhibition is half-maximal) was found to be 2 nM in assay [1] and 4 nM in assay [2].

Consider `CC(C)(C)Nc1ccc2cccc(-c3cc4c([nH]3)CCNC4=O)c2n1`, for which the IC50 in assay [1] is 0.434 nM; in assay [2], 1.11 nM.

Regarding `Cn1c(NC(C)(C)C)nc2c(-c3cc4c([nH]3)CNC4=O)cccc2c1=O`, the IC50 in assay [2] is 0.193 nM.

As to `Cc1nc2cccc(-c3cc4c([nH]3)CCNC4=O)c2nc1-c1c(F)cccc1Cl`, the IC50 in assay [1] was found to be 6.04 nM.

For the compound `Cc1nc2cccc(-c3cc4c([nH]3)CCNC4=O)c2nc1N[C@H]1C[C@@H](N2CCOCC2)C1`, the IC50 in assay [1] was 6 nM.

Turning to `Cc1nc2cccc(-c3cc4c([nH]3)CCNC4=O)c2nc1-c1cccnc1Cl`, the IC50 in assay [1] was determined as 98.5 nM; in assay [2], 187 nM.

Consider `Cc1nc2cccc(-c3cc4c([nH]3)CCNC4=O)c2nc1NC(C)(C)CCS(C)(=O)=O`, for which the IC50 was found to be 232 nM in assay [1] and 98.6 nM in assay [2].

Regarding `Cc1nc2cccc(-c3cc4c([nH]3)CCNC4=O)c2nc1N[C@H]1C[C@@H](NCC(F)F)C1`, the IC50 in assay [1] and in assay [2] was 2 nM throughout.

For the compound `Cc1nc2cccc(-c3cc4c([nH]3)CCN/C4=N/O)c2nc1NC(C)(C)C`, the IC50 in assay [1] is 9 nM; in assay [2] it was 12 nM.

`Nc1nc2cccc(-c3cc4c([nH]3)CCNC4=O)c2nc1Oc1ccccc1`: the IC50 in assay [1] stood at 2 nM; in assay [2], 1.8 nM.

Regarding `Cc1nc2cccc(-c3cc4c([nH]3)CCNC4=O)c2nc1-c1ccc(N)cc1Cl`, the IC50 in assay [1] amounted to 10.3 nM; in assay [2] it was 33.4 nM.

As to `CC1(C)CCCN1c1cnc2cccc(-c3cc4c([nH]3)CCNC4=O)c2n1`, the IC50 in assay [1] is 0.3 nM; in assay [2] it was 0.8 nM.

As for `Cc1nc2cccc(-c3cc4c([nH]3)CCNC4=O)c2nc1-c1cnccc1Cl`, the IC50 in assay [1] is 50.7 nM.

In the case of `O=C1NCCc2[nH]c(-c3cccc4ccc(N[C@H]5CC[C@H](O)CC5)nc34)cc21`, the IC50 came to 7 nM in assay [3] and 57.2 nM in assay [4].

Take `Cc1nc2cccc(-c3cc4c([nH]3)CCNC4=O)c2nc1NC(C)(C)C(N)=O`: the IC50 stood at 6.2 nM in assay [1] and 22.7 nM in assay [2].

Consider `CC1(C)CCN1c1cnc2cccc(-c3cc4c([nH]3)CCNC4=O)c2n1`, for which the IC50 in assay [1] was determined as 0.4 nM; in assay [2] it was 0.8 nM.

Regarding `Cc1nc2cccc(-c3cc4c(n3C)C(CO)NC4=O)c2nc1NC(C)(C)C` (racemic), the IC50 in assay [1] came out at 10.3 nM; in assay [2], 7.8 nM.

As to `Cc1nc2cccc(-c3cc4c([nH]3)C(CO)NC4=O)c2nc1NC(C)(C)C` (racemic), the IC50 in assay [1] was 2.32 nM; in assay [2], 2.16 nM.

With `Cc1nc2cccc(-c3cc4c([nH]3)CCNC4=O)c2nc1NC(C)C(C)C` (racemic), the values for the IC50 in assay [1] and in assay [2] were 1.2 nM and 1.8 nM, respectively.
